Source: patent US10945435B2, “Imidazopyrimidine derivatives with sulfur containing phenyl and pyridyl substituents” (SYNGENTA PARTICIPATIONS AG, priority 2017, dated 2021)

Assays:
Assay type in all cases: in vivo
[1] = tested on: Diabrotica balteata (Corn Root Worm); test: Example B2 Diabrotica balteata mortality and growth inhibition; details: 96 h, application rate of 200 ppm, L2 larvae on sprayed maize sprouts, 4 days after infestation, read-out: effect in at least one of the two categories (mortality or growth inhibition)
Procedure: Diabrotica balteata (Corn Root Worm)
(§1) Maize sprouts placed onto an agar layer in 24-well microtiter plates were treated with aqueous test solutions prepared from 10,000 ppm DMSO stock solutions by spraying. After drying, the plates were infested with L2 larvae (6 to 10 per well). The samples were assessed for mortality and growth inhibition in comparison to untreated samples 4 days after infestation.

[2] = tested on: Plutella xylostella (Diamond Back Moth); test: Example B13 Plutella xylostella mortality and growth inhibition; details: 120 h, application rate of 200 ppm, L2 larvae on treated artificial diet, 5 days after infestation, read-out: effect in at least one of the two categories (mortality or growth inhibition)
Procedure: Plutella xylostella (Diamond Back Moth)
(§2) 24-well microtiter plates with artificial diet were treated with aqueous test solutions prepared from 10,000 ppm DMSO stock solutions by pipetting. After drying, the plates were infested with L2 larvae (10 to 15 per well). The samples were assessed for mortality and growth inhibition in comparison to untreated samples 5 days after infestation.

[3] = tested on: Plutella xylostella (Diamond Back Moth); test: Example B11 Plutella xylostella growth inhibition activity; details: 120 h, application rate of 200 ppm, L2 larvae on treated artificial diet, 5 days after infestation
Procedure: Plutella xylostella (Diamond Back Moth): Growth Inhibition Activity
as §2, with “for” for “for mortality and”, “infestation. Control of Plutella xylostella by a test sample is given when the growth inhibition is higher than the untreated sample.” for “infestation.”

[4] = tested on: Diabrotica balteata (Corn Root Worm); test: Example B4 Diabrotica balteata mortality; details: 96 h, application rate of 200 ppm, L2 larvae on sprayed maize sprouts, 4 days after infestation
Procedure: Diabrotica Balteata (Corn Root Worm):
as §1, with “mortality” for “mortality and growth inhibition in comparison to untreated samples”

[5] = tested on: Bemisia tabaci (Cotton White Fly); test: Example B1 Bemisia tabaci feeding/contact activity; details: foliar, 144 h, application rate of 200 ppm, adult white flies on sprayed cotton leaf discs, 6 days after incubation
Procedure: Bemisia tabaci (Cotton White Fly): Feeding/Contact Activity
Cotton leaf discs were placed on agar in 24-well microtiter plates and sprayed with aqueous test solutions prepared from 10,000 ppm DMSO stock solutions. After drying the leaf discs were infested with adult white flies. The samples were checked for mortality 6 days after incubation.

[6] = tested on: Spodoptera littoralis (Egyptian Cotton Leaf Worm); test: Example B16 Spodoptera littoralis feeding/contact activity; details: foliar, 72 h, application rate of 200 ppm, L1 larvae on sprayed cotton leaf discs, 3 days after infestation
Procedure: Spodoptera littoralis (Egyptian Cotton Leaf Worm): Feeding/Contact Activity
(§3) Cotton leaf discs were placed onto agar in 24-well microtiter plates and sprayed with aqueous test solutions prepared from 10,000 ppm DMSO stock solutions. After drying the leaf discs were infested with five L1 larvae. The samples were assessed for mortality 3 days after infestation.

[7] = tested on: Euschistus heros (Neotropical Brown Stink Bug); test: Example B5 Euschistus heros mortality and growth inhibition; details: 120 h, application rate of 200 ppm, N2 nymphs on sprayed soybean leaves, 5 days after infestation, read-out: effect in at least one of the two categories (mortality or growth inhibition)
Procedure: Euschistus heros (Neotropical Brown Stink Bug)
Soybean leaves on agar in 24-well microtiter plates were sprayed with aqueous test solutions prepared from 10,000 ppm DMSO stock solutions. After drying the leaves were infested with N2 nymphs. The samples were assessed for mortality and growth inhibition in comparison to untreated samples 5 days after infestation.

[8] = tested on: Euschistus heros (Neotropical Brown Stink Bug); test: Example B7 Euschistus heros feeding/contact activity; details: 120 h, application rate of 200 ppm, N2 nymphs on sprayed soybean leaves, 5 days after infestation
Procedure: Euschistus heros (Neotropical Brown Stink Bug): Feeding/Contact Activity
Soybean leaves on agar in 24-well microtiter plates were sprayed with aqueous test solutions prepared from 10,000 ppm DMSO stock solutions. After drying the leaves were infested with N2 nymphs. The samples were assessed for mortality 5 days after infestation.

[9] = tested on: Plutella xylostella (Diamond Back Moth); test: Example B12 Plutella xylostella feeding/contact activity; details: 120 h, application rate of 200 ppm, L2 larvae on treated artificial diet, 5 days after infestation
Procedure: Plutella xylostella (Diamond Back Moth): Feeding/Contact Activity
24-well microtiter plates with artificial diet were treated with aqueous test solutions prepared from 10,000 ppm DMSO stock solutions by pipetting. After drying, the plates were infested with L2 larvae (10 to 15 per well). The samples were assessed for mortality 5 days after infestation.

[10] = tested on: Myzus persicae (Green Peach Aphid); test: Example B9 Myzus persicae feeding/contact activity; details: foliar, 144 h, application rate of 200 ppm, mixed-age aphids on sprayed sunflower leaf discs, 6 days after infestation
Procedure: Myzus persicae (Green Peach Aphid): Feeding/Contact Activity
Sunflower leaf discs were placed onto agar in a 24-well microtiter plate and sprayed with aqueous test solutions prepared from 10,000 ppm DMSO stock solutions. After drying, the leaf discs were infested with an aphid population of mixed ages. The samples were assessed for mortality 6 days after infestation.

[11] = tested on: Spodoptera littoralis (Egyptian Cotton Leaf Worm); test: Example B14 Spodoptera littoralis anti-feeding activity; details: foliar, 72 h, application rate of 200 ppm, L1 larvae on sprayed cotton leaf discs, 3 days after infestation, read-out: control (anti-feeding effect)
Procedure: Spodoptera littoralis (Egyptian Cotton Leaf Worm): Anti-Feeding Activity
as §3, with “anti-feeding effect in comparison to untreated samples” for “mortality”, “infestation. Control of Spodoptera littoralis by a test sample is given when the anti-feedant effect is higher than the untreated sample.” for “infestation.”

[12] = tested on: Myzus persicae (Green Peach Aphid); test: Example B10 Myzus persicae systemic activity; details: 144 h, test rate of 24 ppm, roots of infested pea seedlings in test solution, 6 days
Procedure: Myzus persicae (Green Peach Aphid). Systemic Activity
Roots of pea seedlings infested with an aphid population of mixed ages were placed directly into aqueous test solutions prepared from 10,000 DMSO stock solutions. The samples were assessed for mortality 6 days after placing seedlings into test solutions.

[13] = tested on: Frankliniella occidentalis (Western Flower Thrips); test: Example B8 Frankliniella occidentalis feeding/contact activity; details: foliar, 168 h, application rate of 200 ppm, mixed-age population on sprayed sunflower leaf discs, 7 days after infestation
Procedure: Frankliniella occidentalis (Western Flower Thrips): Feeding/Contact Activity
Sunflower leaf discs were placed on agar in 24-well microtiter plates and sprayed with aqueous test solutions prepared from 10,000 DMSO stock solutions. After drying the leaf discs were infested with a Frankliniella population of mixed ages. The samples were assessed for mortality 7 days after infestation.

CCS(=O)(=O)c1cc(OCC(F)(F)F)cnc1-c1cn2cnc(SC(F)(F)F)cc2n1 [Compound P1, 2-[3-ethylsulfonyl-5-(2,2,2-trifluoroethoxy)-2-pyridyl]-7-(trifluoromethylsulfanyl)imidazo[1,2-c]pyrimidine]
≥ 80%: percent effect (mortality or growth inhibition) at 200 ppm [1] | percent effect (mortality or growth inhibition) at 200 ppm [2] | inhibition at 200 ppm [3] | mortality at 200 ppm [4] | mortality at 200 ppm [5] | mortality at 200 ppm [6] | percent effect (mortality or growth inhibition) at 200 ppm [7] | mortality at 200 ppm [8] | mortality at 200 ppm [9] | mortality at 200 ppm [10] | pest or weed control at 200 ppm [11]

CCS(=O)(=O)c1cc(OC(C)C)cnc1-c1cn2cnc(SC(F)(F)F)cc2n1 [Compound P2, 2-(3-ethylsulfonyl-5-isopropoxy-2-pyridyl)-7-(trifluoromethylsulfanyl)imidazo[1,2-c]pyrimidine]
≥ 80%: percent effect (mortality or growth inhibition) at 200 ppm [1] | percent effect (mortality or growth inhibition) at 200 ppm [2] | inhibition at 200 ppm [3] | mortality at 200 ppm [4] | mortality at 200 ppm [6] | percent effect (mortality or growth inhibition) at 200 ppm [7] | mortality at 200 ppm [8] | mortality at 200 ppm [9] | pest or weed control at 200 ppm [11]

CCS(=O)(=O)c1cc(OCC(F)F)cnc1-c1cn2cnc([S+]([O-])C(F)(F)F)cc2n1 (stereo not drawn) [Compound P3, 2-[5-(2,2-difluoroethoxy)-3-ethylsulfonyl-2-pyridyl]-7-(trifluoromethylsulfinyl)imidazo[1,2-c]pyrimidine]
≥ 80%: percent effect (mortality or growth inhibition) at 200 ppm [1] | percent effect (mortality or growth inhibition) at 200 ppm [2] | inhibition at 200 ppm [3] | mortality at 200 ppm [4] | percent effect (mortality or growth inhibition) at 200 ppm [7] | mortality at 200 ppm [8] | mortality at 200 ppm [10]

CCS(=O)(=O)c1cc(OCC(F)(F)F)cnc1-c1cn2cnc(C(F)(F)F)cc2n1 [Compound P6, 2-[3-ethylsulfonyl-5-(2,2,2-trifluoroethoxy)-2-pyridyl]-7-(trifluoromethyl)imidazo[1,2-c]pyrimidine]
≥ 80%: mortality at 24 ppm [12] | percent effect (mortality or growth inhibition) at 200 ppm [1] | percent effect (mortality or growth inhibition) at 200 ppm [2] | inhibition at 200 ppm [3] | mortality at 200 ppm [4] | mortality at 200 ppm [5] | mortality at 200 ppm [6] | percent effect (mortality or growth inhibition) at 200 ppm [7] | mortality at 200 ppm [8] | mortality at 200 ppm [9] | mortality at 200 ppm [10] | pest or weed control at 200 ppm [11]

CCS(=O)(=O)c1cc(OC(C)C)cnc1-c1cn2cnc(C(F)(F)F)cc2n1 [Compound P7, 2-(3-ethylsulfonyl-5-isopropoxy-2-pyridyl)-7-(trifluoromethyl)imidazo[1,2-c]pyrimidine]
≥ 80%: percent effect (mortality or growth inhibition) at 200 ppm [1] | percent effect (mortality or growth inhibition) at 200 ppm [2] | inhibition at 200 ppm [3] | mortality at 200 ppm [4] | mortality at 200 ppm [6] | percent effect (mortality or growth inhibition) at 200 ppm [7] | mortality at 200 ppm [8] | mortality at 200 ppm [9] | mortality at 200 ppm [10] | pest or weed control at 200 ppm [11]

CCS(=O)(=O)c1cc(OC(C)(C)C#N)cnc1-c1cn2cnc(C(F)(F)F)cc2n1 [Compound P13, 2-[[5-ethylsulfonyl-6-[7-(trifluoromethyl)imidazo[1,2-c]pyrimidin-2-yl]-3-pyridyl]oxy]-2-methyl-propanenitrile]
≥ 80%: percent effect (mortality or growth inhibition) at 200 ppm [1] | percent effect (mortality or growth inhibition) at 200 ppm [2] | inhibition at 200 ppm [3] | mortality at 200 ppm [13] | mortality at 200 ppm [4] | mortality at 200 ppm [5] | mortality at 200 ppm [6] | percent effect (mortality or growth inhibition) at 200 ppm [7] | mortality at 200 ppm [8] | mortality at 200 ppm [9] | mortality at 200 ppm [10] | pest or weed control at 200 ppm [11]

CCS(=O)(=O)c1cc(OCCSC)cnc1-c1cn2cnc(C(F)(F)F)cc2n1 [Compound P15, 2-[3-ethylsulfonyl-5-(2-methylsulfanylethoxy)-2-pyridyl]-7-(trifluoromethyl)imidazo[1,2-c]pyrimidine]
≥ 80%: mortality at 24 ppm [12] | mortality at 200 ppm [5] | percent effect (mortality or growth inhibition) at 200 ppm [7] | mortality at 200 ppm [8] | mortality at 200 ppm [10]

CCS(=O)(=O)c1cc(OC(F)F)cnc1-c1cn2cnc(C(F)(F)F)cc2n1 [Compound P21, 2-[5-(difluoromethoxy)-3-ethylsulfonyl-2-pyridyl]-7-(trifluoromethyl)imidazo[1,2-c]pyrimidine]
≥ 80%: percent effect (mortality or growth inhibition) at 200 ppm [1] | percent effect (mortality or growth inhibition) at 200 ppm [2] | inhibition at 200 ppm [3] | mortality at 200 ppm [4] | mortality at 200 ppm [5] | mortality at 200 ppm [6] | percent effect (mortality or growth inhibition) at 200 ppm [7] | mortality at 200 ppm [8] | mortality at 200 ppm [9] | mortality at 200 ppm [10] | pest or weed control at 200 ppm [11]

CCS(=O)(=O)c1cc(OCS(C)(=O)=O)cnc1-c1cn2cnc(C(F)(F)F)cc2n1 [Compound P23, 2-[3-ethylsulfonyl-5-(methylsulfonylmethoxy)-2-pyridyl]-7-(trifluoromethyl)imidazo[1,2-c]pyrimidine]
≥ 80%: mortality at 24 ppm [12] | percent effect (mortality or growth inhibition) at 200 ppm [7] | mortality at 200 ppm [8] | mortality at 200 ppm [10]
